Holding throughout (assay type): cell-based
The test system of assay [1] is Z138 cells. Description: MTT cell proliferation assay, Z138 cells. The settings on record: Homo sapiens, Z-138, approximately 64-72 hours, 1 nM to 30 μM. As for the experimental part: (§1) The MTT cell proliferation assay was used to study the cytotoxic properties of the compounds. The assay was performed according to the method described by Roche Molecular Biochemicals, with minor modifications. The assay is based on the cleavage of the tetrazolium salt, MTT, in the presence of an electron-coupling reagent. The water-insoluble formazan salt produced must be solubilized in an additional step. Cells grown in a 96-well tissue culture plate were incubated with the MTT solution for approximately 4 hours. After this incubation period, a water-insoluble formazan dye formed. After solubilization, the formazan dye was quantitated using a scanning multi-well spectrophotometer (ELISA reader). […] The cells were seeded at 5,000-10,000 cells in each well of 96-well plate in 100 μL of fresh culture medium and were allowed to attach overnight. The stock solutions of the compounds were diluted in 100 μL cell culture medium to obtain eight concentrations of each test compound, ranging from 1 nM to 30 μM. […] All optical densities were measured at 490 nm using a Vmax Kinetic Microplate Reader (Molecular Devices). In most cases, the assay was performed in duplicate and the results were presented as a mean percent inhibition to the negative control±SE. The following formula was used to calculate the percent of inhibition: Inhibition (%)=(1−(ODo/OD))×100.
(§2) The compounds were tested against Z138, MM1S and 3T3 cells. The Z138 cell line is a mature B-cell acute lymphoblastic leukemia cell line derived from a patient with chronic lymphocytic leukemia. The MM1S cell line was established from the peripheral blood of a human multiple myeloma patient. 3T3 cells are standard fibroblast cells; they were originally isolated from Swiss mouse embryo tissue.
On the technique in general: Formazan colour is commonly taken as a measure of viable cells.

Assay [2] relates to 3T3 cells. Description: MTT cell proliferation assay, 3T3 cells. Particulars: Mus musculus, NIH3T3, 3T3 fibroblast cells, approximately 64-72 hours, 1 nM to 30 μM. The protocol:
as §1, §2

Assay [3] deals with MM1S cells. In words: MTT cell proliferation assay, MM1S cells. Particulars: Homo sapiens, MM1.S, MM1S multiple myeloma cells, approximately 64-72 hours, 1 nM to 30 μM. The protocol: as §1, §2

`CCOC(=O)/C=C/c1cncc(-c2cc(C(F)(F)F)cc(C(F)(F)F)c2)n1` [Compound 101, ethyl (E)-3-(6-(3,5-bis(trifluoromethyl)phenyl)pyrazin-2-yl)acrylate]: the IC50 in assay [1], in assay [2] and in assay [3] was more than 30 µM in each case.
As to `CCOC(=O)/C(Br)=C/c1cncc(-c2cc(C(F)(F)F)cc(C(F)(F)F)c2)n1` [Compound 102, ethyl (Z)-3-(6-(3,5-bis(trifluoromethyl)phenyl)pyrazin-2-yl)-2-bromoacrylate], the IC50 in assay [1] was 0.1 to 5 µM; in assay [2], more than 30 µM; in assay [3], 0.1 to 5 µM.
`NC(=O)/C(Br)=C/c1cncc(-c2cc(C(F)(F)F)cc(C(F)(F)F)c2)n1` [Compound 103, (Z)-3-(6-(3,5-bis(trifluoromethyl)phenyl)pyrazin-2-yl)-2-bromoacrylamide]: the values for the IC50 in assay [1], in assay [2] and in assay [3] were 0.1 to 5 µM, more than 30 µM and 0.1 to 5 µM, respectively.
With `NC(=O)/C(=C\c1cncc(-c2cc(C(F)(F)F)cc(C(F)(F)F)c2)n1)c1cncnc1` [Compound 104, (Z)-3-(6-(3,5-bis(trifluoromethyl)phenyl)pyrazin-2-yl)-2-(pyrimidin-5-yl)acrylamide], the IC50 in assay [1], in assay [2] and in assay [3] was more than 30 µM throughout.
As for `CCOC(=O)/C=C/c1ccnc(-c2cc(C(F)(F)F)cc(C(F)(F)F)c2)n1` [Compound 105, ethyl (E)-3-(2-(3,5-bis(trifluoromethyl)phenyl)pyrimidin-4-yl)acrylate], the IC50 in assay [1], in assay [2] and in assay [3] was more than 30 µM each time.
For the compound `CCOC(=O)C(Br)C(Br)c1ccnc(-c2cc(C(F)(F)F)cc(C(F)(F)F)c2)n1` (centres unmarked) [Compound 106, ethyl 3-(2-(3,5-bis(trifluoromethyl)phenyl)pyrimidin-4-yl)-2,3-dibromopropanoate], the IC50 in assay [1] was 0.1 to 5 µM; in assay [2], more than 30 µM; in assay [3], 0.1 to 5 µM.
As to `NC(=O)/C(=C\c1ccnc(-c2cc(C(F)(F)F)cc(C(F)(F)F)c2)n1)c1cncnc1` [Compound 107, (Z)-3-(2-(3,5-bis(trifluoromethyl)phenyl)pyrimidin-4-yl)-2-(pyrimidin-5-yl)acrylamide], the concentration for half-maximal inhibition (IC50) in assay [1] is 5 to 30 µM; in assay [2], more than 30 µM; in assay [3], 0.1 to 5 µM.
Turning to `NC(=O)/C(=C/c1ccnc(-c2cc(C(F)(F)F)cc(C(F)(F)F)c2)n1)c1ccc(Cl)c(F)c1` [Compound 133, (E)-3-(2-(3,5-bis(trifluoromethyl)phenyl)pyrimidin-4-yl)-2-(4-chloro-3-fluorophenyl)acrylamide], the results for the IC50 in assay [1] and in assay [2] were less than 0.1 µM and more than 30 µM, respectively.
For `NC(=O)/C(=C/c1ccnc(-c2cc(C(F)(F)F)cc(C(F)(F)F)c2)n1)c1cccc(S(=O)(=O)N2CCC(F)(F)CC2)c1` [Compound 138, (E)-3-(2-(3,5-bis(trifluoromethyl)phenyl)pyrimidin-4-yl)-2-(3-((4,4-difluoropiperidin-1-yl)sulfonyl)phenyl)acrylamide] the same measures were 0.1 to 5 µM and more than 30 µM.
With `NC(=O)/C(=C/c1ccnc(-c2cc(C(F)(F)F)cc(C(F)(F)F)c2)n1)c1cccc(S(=O)(=O)N2CC(F)(F)C2)c1` [Compound 139, (E)-3-(2-(3,5-bis(trifluoromethyl)phenyl)pyrimidin-4-yl)-2-(3-((3,3-difluoroazetidin-1-yl)sulfonyl)phenyl)acrylamide], the IC50 in assay [1] and in assay [3] was more than 30 µM in each case.
With `N#Cc1ccccc1/C(=C\c1ccnc(-c2cc(C(F)(F)F)cc(C(F)(F)F)c2)n1)C(N)=O` [Compound 154, (E)-3-(2-(3,5-bis(trifluoromethyl)phenyl)pyrimidin-4-yl)-2-(2-cyanophenyl)acrylamide], the IC50 in assay [1] was more than 30 µM; in assay [3], 0.1 to 5 µM.

For orientation: IC50 means the point on the concentration scale where inhibition reaches its midpoint. Read a low IC50 as greater potency.

For the origin of these results see patent publication US10709706B2, “Nuclear transport modulators and uses thereof” (Karyopharm Therapeutics Inc., priority 2015, dated 2020).
